The subject of assay [1] is RT4 urothelial cancer cells. Nature of the assay: In vitro cell viability, RT4. Format: cell-based, human. The note with it: antagonist 5 μM for 72 h, cell proliferation assay; MIA602 = 1. On the procedure:
The inhibitory effects of the various synthesized GHRH antagonists were tested in cell proliferation assays in various human cancer cell lines including stomach cancer (KATOIII, N87), colon cancer (HT-29), urothelial cancer (J82, RT4), pancreatic cancer (PANC-1, CFPAC-1), prostatic cancer (PC3), breast cancer (MX-1, HCC1806), ovarian cancer (SK-OV-3, OVCAR-3) and lung cancer (HCC827, H460).
Cell culture. Human cancer cell lines including pancreatic (PANC-1 and CFPAC-1), lung (HCC827 and H460), stomach (NCI-N87 and KATOIII), urothelial (J82, RT4), prostatic (PC3), breast (MX-1 and HCC 1806), colorectal (HT-29), and ovarian (SK-OV-3 and OVCAR-3) were obtained from the American Type Culture Collection (ATCC) and cultured at 37° C. in a humidified 95% air/5% CO2 atmosphere in the medium recommended by ATCC.
In vitro cell viability. Cell viability was analyzed as follows: cancer cells including pancreatic (PANC-1 and CFPAC-1), lung (HCC827 and H460), stomach (NCI-N87 and KATOIII), urothelial (J82, RT4), prostatic (PC3) and breast (MX-1 and HCC 1806), colorectal (HT-29) and ovarian (SK-OV-3 and OVCAR-3) were grown on 96 well plates to ˜60% confluence, the cells were starved for 24 h in culture medium containing 0.5% FBS. Cells were then treated with GHRH antagonists MIA602 AVR compounds at concentrations of 1, 2.5 or 5 μM, or vehicle (0.1% DMSO) in quintuplicates for 72 hours. The medium was replaced every 48 hours. Cell viability was measured using CellTiter 96 aqueous one solution kit (Promega). Inhibitory effects of tested AVR compounds in comparison to that of MIA602 are presented as inhibitory potency.
Inhibitory effects of selected AVR compounds in comparison to that of MIA602 are presented as inhibitory potency (e.g., percentage of inhibition). […] The cell lines tested including lung cancer HCC827 (FIG. 2A), pancreatic cancer CFPAC-1 (FIG. 2B), stomach cancer N87 (FIG. 2C), colon cancer HT-29 (FIG. 2D), breast cancers MX-1 and HCC1806 (FIGS. 2 E, F). […]

For assay [2], the system named is bleomycin-induced lung infiltrates. Nature of the assay: Bleomycin mouse model, micro-CT of lungs. It is filed as in vivo, C57Bl/6J mice. The following applies: bleomycin plus MIA-602 vs vehicle. As for the experimental part: Bleomycin and GHRH-R antagonist treatment. Mice were treated with 0.8 units of bleomycin (Bleomycin for Injection USP, Hospira, Lake Forest, Ill.) intraperitoneally (IP) on days 1, 3, 7, 10, 14 and 21 (Collins S, Chan-Li Y, Oh M, Vigeland C, Limjunyawong N, Mitzner W, Powell J D, Horton M R (2016). JCI Insight 1(4):1-13). Mice (randomly assigned) were simultaneously treated subcutaneously (sc) with MIA-602 (5 μg/day) or its vehicle (100 μL/day). MIA-602 was dissolved in DMSO (ACS grade; Sigma-Aldrich) and diluted 1:500 in normal saline for daily sc injection on days 0-21.
Tissue preparations. Mice were killed by CO2 inhalation before any treatment, or on days 14 or 28 for micro-CT scans of lungs and harvesting of lung tissue (Vande Vel de G, Poelmans J, De Langhe E, Hillen A, Vanoirbeek J, Himmelreich U, Lories R (2016). Dis Model Mech 9:91). The right mainstem bronchus was ligated and the right lung removed and frozen at −80° C. for hydroxyproline (HP) assays. The left lung was filled with 10% buffered formalin at […] cm H2O pressure, the bronchus ligated, and the lung fixed in formalin. Fixed lungs were embedded in wax and 5 μm sections stained with hematoxylin and eosin (H&E) or Masson's trichrome stain.
Micro-CT. Mice in each group were assessed by micro-CT scans (Bruker SkyScan 1176 Low Dose Micro-CT, Knotich, Belgium) of the lungs after CO2 inhalation. […]

The test system of assay [3] is mouse lung fibroblasts (Mlg 2908). Nature of the assay: Annexin V-propidium iodide assay of lung fibroblasts. It is filed as cell-based. The following applies: 24 hours, annexin-V/PI. On the procedure:
Lung fibroblasts. Newborn mouse lung fibroblasts (Mlg 2908) were obtained from the American Type Culture Collection, Manassas, Va. and cultured in Eagle's minimal essential medium. Cells were grown in 6-well plates before incubation with 1 or 5 μM MIA-602 or vehicle, RNA isolation, and oxygen consumption measurements.
Annexin V-propidium iodide assay. Apoptosis and necrosis were assessed with annexin-V/propidium iodide staining (Annexin V: FITC Assay Kit, Bio Rad, Hercules, Calif. 94547) of lung fibroblasts incubated in 0, 1 or 5 μM MIA-602 for 24 hours (Rieger A, Nelson K, Konowalchuk J, Barreda D. (2011). J Visualized Experiments 50:e2597). Culture medium and trypsinized cells were collected and centrifuged at 400×g for 5 minutes. The pellet was resuspended in 100 μL annexin-V/propidium iodide. The suspension was incubated at 37° C. for 20 minutes, then washed with PBS and resuspended in 500 μL PBS and fluorescence quantified by Beckman Coulter Life Sciences CytoFLEX benchtop flow cytometer (Beckman Coulter, Inc., Brea, Calif.).

Each structure is given as a SMILES string. Non-standard residues stand in square brackets, D forms with d. Residues, ends and D or L forms follow the SMILES beside them. *: point of attachment. Phe(F5) = N[C@@H](Cc1c(F)c(F)c(F)c(F)c1F)C(=O)O; hArg = N=C(N)NCCCC[C@H](N)C(=O)O; 12Ado = NCCCCCCCCCCCC(=O)O; Nle = CCCC[C@H](N)C(=O)O; Orn = NCCC[C@H](N)C(=O)O; Abu = CC[C@H](N)C(=O)O; PhAc = O=C(Cc1ccccc1)*

For the compound `CCCC[C@H](NC(=O)[C@@H](NC(=O)[C@H](CC(=O)O)NC(=O)[C@H](CCC(N)=O)NC(=O)[C@H](CC(C)C)NC(=O)[C@H](CC(C)C)NC(=O)[C@H](CCCN)NC(=O)[C@H](Cc1c[nH]cn1)NC(=O)[C@H](C)NC(=O)[C@H](CO)NC(=O)[C@H](CC(C)C)NC(=O)[C@H](CCC(N)=O)NC(=O)[C@H](CC)NC(=O)[C@H](CC(C)C)NC(=O)[C@@H](NC(=O)[C@H](CCCN)NC(=O)[C@H](Cc1c[nH]cn1)NC(=O)[C@H](Cc1ccc(OC)cc1)NC(=O)[C@H](CCCCNC(=N)N)NC(=O)[C@H](C)NC(=O)[C@@H](NC(=O)[C@H](Cc1c(F)c(F)c(F)c(F)c1F)NC(=O)[C@@H](NC(=O)[C@H](C)NC(=O)[C@H](CC(=O)O)NC(=O)[C@@H](CCCNC(=N)N)NC(=O)[C@H](Cc1ccc(O)cc1)NC(=O)CCCCCCCCCCCNC(=O)Cc1ccccc1)[C@@H](C)CC)[C@@H](C)O)C(C)C)[C@@H](C)CC)C(=O)N[C@H](CCCNC(=N)N)C(=O)N[C@@H](CCCCNC(=N)N)C(N)=O` [MIA-602, PhAC-Ada, Tyr D-Arg, Asp, Ala, Ile, 5FPhe, Thr, Ala, Har, Tyr(Me), His, Orn, Val, Leu, Abu, Gin, Leu, Ser, Ala, His, Om, Leu, Leu, Gin, Asp, Ile; Nle, D-Arg, Har NH2, reference compound] ({PhAc-12Ado}-Y[dR]DAI[Phe(F5)]TA[hArg]Y(Me)H[Orn]VL[Abu]QLSAH[Orn]LLQDI[Nle][dR][hArg]-NH2), in assay [1], the “relative inhibitory potency in comparison to MIA-602, Urothelial RT4” value is reported as 1. The “infiltrative densities in lungs, micro-CT (in words)” value in assay [2] is reported as “less prominent infiltrative densities”. Besides, the figures for the cytolytic cell death in assay [3] (1 μM) and in assay [3] (5 μM) were 9.3±1.1% and 34.9±2.5%, respectively.

(Values after US20210395327A1, “Growth Hormone-Releasing Hormone Antagonists and Uses Thereof” (United States Government As Represented By The Department …, priority 2019, published 2021).)
